Test [1] deals with T1, human CD73 (Homo sapiens, UniProt P21589).
T1 construct: purchased R&D Systems 5795-EN-010
T1 sequence (P21589 27-549): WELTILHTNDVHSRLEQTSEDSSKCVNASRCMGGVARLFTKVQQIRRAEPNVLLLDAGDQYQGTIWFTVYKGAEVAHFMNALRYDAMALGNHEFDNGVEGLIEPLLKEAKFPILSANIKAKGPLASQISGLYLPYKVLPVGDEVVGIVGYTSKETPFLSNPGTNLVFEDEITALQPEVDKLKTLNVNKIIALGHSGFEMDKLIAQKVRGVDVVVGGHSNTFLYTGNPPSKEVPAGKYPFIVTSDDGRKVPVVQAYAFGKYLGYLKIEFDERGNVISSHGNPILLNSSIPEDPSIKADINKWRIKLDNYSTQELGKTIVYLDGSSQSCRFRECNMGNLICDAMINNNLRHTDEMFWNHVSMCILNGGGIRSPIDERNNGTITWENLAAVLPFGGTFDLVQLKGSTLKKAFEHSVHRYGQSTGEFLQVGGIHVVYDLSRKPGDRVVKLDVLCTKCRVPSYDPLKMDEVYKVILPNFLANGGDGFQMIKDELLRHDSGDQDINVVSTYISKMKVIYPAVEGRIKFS
Briefly: Inhibition of 5′-Nucleotidase Activity of CD73 (Assay 1). It counts as biochemical. To be noted: human CD73 4 ng/ml, 50 μM CMP, 20 min at RT, malachite green readout; read-out: Assay 1: IC50, inhibition of 5′-nucleotidase activity of CD73. The gist of the method: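 Human CD73 (4 ng/ml final) was incubated with 50 μM CMP in 25 mM Tris-HCl pH 7.4, 0.005% Brij-35 for 20 min at RT. Reactions were stopped with malachite green reagent and absorbance was read at 620 nm. IC50 came from a 4-parameter logistic fit.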

In test [2] the target is T2, CD73 on U138 neuroglioma cells (Homo sapiens, UniProt P21589).
T2 construct: U138 neuroglioma cells, which express CD73 on their surface; endogenous in cells; host or cells: U138 neuroglioma cells (ATCC)
T2 sequence (P21589 27-549): T1 sequence (P21589 27-549)
The experiment in a line: Inhibition of Ecto-5′-Nucleotidase Activity in U138 Neuroglioma Cells (Assay 2). In kind it is cell-based. The conditions noted are these: 50 μM CMP, 2 hr at 37° C., malachite green readout, read-out: Assay 2: IC50, inhibition of ecto-5′-nucleotidase activity in U138 neuroglioma cells. In outline: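 Whole-cell CD73 activity in U138 human neuroglioma cells seeded the day before, washed free of phosphate, then given test compound dilutions with 50 μM CMP in HEPES-buffered saline, pH 7.4, DMSO ≤0.1%. Incubated 2 hr at 37° C; released inorganic phosphate in supernatant measured by malachite green; IC50 by nonlinear regression.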

The structures appear in SMILES notation.

By IC50 is commonly meant the concentration needed to halve the response being measured. In the case of `CCOC(=O)C(OC[C@H]1O[C@@H](n2cnc3c(N)nc(SC)nc32)[C@H](O)[C@@H]1O)P(=O)(O)O` (stereo partly drawn) [Example 43, (1-(((2R,3S,4R,5R)-5-(6-amino-2-(methylthio)-9H-purin-9-yl)-3,4-dihydroxytetrahydrofuran-2-yl)methoxy)-2-ethoxy-2-oxoethyl)phosphonic Acid], the concentration for half-maximal inhibition (IC50) is 100 to 1000 nM in test [1] and greater than 1000 nM in test [2].

`Nc1nc(Cl)nc2c1ncn2[C@@H]1O[C@H](COC(Cc2ccc(Cl)cc2)(C(=O)O)C(=O)O)[C@@H](O)[C@H]1O` [Example 47, 2-(((2R,3S,4R,5R)-5-(6-amino-2-chloro-9H-purin-9-yl)-3,4-dihydroxytetrahydrofuran-2-yl)methoxy)-2-(4-chlorobenzyl)malonic acid]: the IC50 in test [1] and in test [2] was less than 100 nM each time.

Regarding `N#Cc1ccc(CC(OC[C@H]2O[C@@H](n3cnc4c(N)nc(Cl)nc43)[C@H](O)[C@@H]2O)(C(=O)O)C(=O)O)cc1` [Example 48, 2-(((2R,3S,4R,5R)-5-(6-amino-2-chloro-9H-purin-9-yl)-3,4-dihydroxytetrahydrofuran-2-yl)methoxy)-2-(4-cyanobenzyl)malonic acid], the IC50 in test [1] and in test [2] was less than 100 nM each time.

For the molecule `Nc1nc(F)nc2c1ncn2[C@@H]1O[C@H](CO[C@@H](C(=O)O)P(=O)(O)O)[C@@H](O)[C@H]1O` [Example 53, (R)-2-(((2R,3S,4R,5R)-5-(6-amino-2-fluoro-9H-purin-9-yl)-3,4-dihydroxytetrahydrofuran-2-yl)methoxy)-2-phosphonoacetic Acid], the IC50 was less than 100 nM in test [1] and 100 to 1000 nM in test [2].

`Nc1nc(F)nc2c1ncn2[C@@H]1O[C@H](CO[C@H](C(=O)O)P(=O)(O)O)[C@@H](O)[C@H]1O` [Example 53a, (S)-2-(((2R,3S,4R,5R)-5-(6-amino-2-fluoro-9H-purin-9-yl)-3,4-dihydroxytetrahydrofuran-2-yl)methoxy)-2-phosphonoacetic acid]: the IC50 in test [1] and in test [2] was greater than 1000 nM throughout.

In the case of `CC(C)(C)OC(=O)[C@H](OC[C@H]1O[C@@H](n2cnc3c(N)nc(C#N)nc32)[C@H](O)[C@@H]1O)P(=O)(O)O` [Example 54a, ((R)-1-(((2R,3S,4R,5R)-5-(6-amino-2-cyano-9H-purin-9-yl)-3,4-dihydroxytetrahydrofuran-2-yl)methoxy)-2-(tert-butoxy)-2-oxoethyl)phosphonic Acid], the IC50 in test [1] is 100 to 1000 nM; in test [2], greater than 1000 nM.

For `O=C(Nc1nc(I)nc2c1ncn2[C@@H]1O[C@H](COC(C(=O)O)P(=O)(O)O)[C@@H](O)[C@H]1O)c1ccccc1` (stereo partly drawn) [Example 58, 2-(((2R,3S,4R,5R)-5-(6-benzamido-2-iodo-9H-purin-9-yl)-3,4-dihydroxytetrahydrofuran-2-yl)methoxy)-2-phosphonoacetic acid], the IC50 is less than 100 nM in test [1] and 100 to 1000 nM in test [2].

For `Nc1nc(I)nc2c1ncn2[C@@H]1O[C@H](CO[C@H](C(=O)O)P(=O)(O)O)[C@@H](O)[C@H]1O` [Example 59, (S)-2-(((2R,3S,4R,5R)-5-(6-amino-2-iodo-9H-purin-9-yl)-3,4-dihydroxytetrahydrofuran-2-yl)methoxy)-2-phosphonoacetic Acid], the IC50 in test [1] was less than 100 nM; in test [2], 100 to 1000 nM.

For `Nc1nc(I)nc2c1ncn2[C@@H]1O[C@H](CO[C@@H](C(=O)O)P(=O)(O)O)[C@@H](O)[C@H]1O` [Example 59a, (R)-2-(((2R,3S,4R,5R)-5-(6-amino-2-iodo-9H-purin-9-yl)-3,4-dihydroxytetrahydrofuran-2-yl)methoxy)-2-phosphonoacetic Acid], the IC50 in test [1] is less than 100 nM; in test [2], 100 to 1000 nM.

As to `O=C(O)C(OC[C@H]1O[C@@H](n2cnc3c(NO)nc(I)nc32)[C@H](O)[C@@H]1O)P(=O)(O)O` (stereo partly drawn) [Example 59b, 2-(((2R,3S,4R,5R)-3,4-dihydroxy-5-(6-(hydroxyamino)-2-iodo-9H-purin-9-yl)tetrahydrofuran-2-yl)methoxy)-2-phosphonoacetic acid], the results for the IC50 in test [1] and in test [2] were less than 100 nM and 100 to 1000 nM, respectively.

Regarding `O=C(O)C(OC[C@H]1O[C@@H](n2cnc3c(Cl)nc(Cl)nc32)[C@H](O)[C@@H]1O)P(=O)(O)O` (stereo partly drawn) [Example 62, 2-(((2R,3S,4R,5R)-5-(2,6-dichloro-9H-purin-9-yl)-3,4-dihydroxytetrahydrofuran-2-yl)methoxy)-2-phosphonoacetic acid], the IC50 in test [1] is less than 100 nM; in test [2], 100 to 1000 nM.

Turning to `CCOc1nc(Cl)nc2c1ncn2[C@@H]1O[C@H](COC(C(=O)O)P(=O)(O)O)[C@@H](O)[C@H]1O` (stereo partly drawn) [Example 63, 2-(((2R,3S,4R,5R)-5-(2-chloro-6-ethoxy-9H-purin-9-yl)-3,4-dihydroxytetrahydrofuran-2-yl)methoxy)-2-phosphonoacetic acid], the IC50 in test [1] was less than 100 nM; in test [2], 100 to 1000 nM.

As to `O=C(O)C(OC[C@H]1O[C@@H](n2cnc3c(Nc4ccccc4)ncnc32)[C@H](O)[C@@H]1O)P(=O)(O)O` (stereo partly drawn) [Example 65, 2-(((2R,3S,4R,5R)-3,4-dihydroxy-5-(6-(phenylamino)-9H-purin-9-yl)tetrahydrofuran-2-yl)methoxy)-2-phosphonoacetic acid], the IC50 in test [1] and in test [2] was 100 to 1000 nM throughout.

Turning to `O=C(O)C(OC[C@H]1O[C@@H](n2cnc3c(N4CCC(O)CC4)ncnc32)[C@H](O)[C@@H]1O)P(=O)(O)O` (stereo partly drawn) [Example 66, 2-(((2R,3S,4R,5R)-3,4-dihydroxy-5-(6-(4-hydroxypiperidin-1-yl)-9H-purin-9-yl)tetrahydrofuran-2-yl)methoxy)-2-phosphonoacetic acid], the IC50 in test [1] was 100 to 1000 nM; in test [2], greater than 1000 nM.

On to `CNc1ncnc2c1ncn2[C@@H]1O[C@H](COC(C(=O)O)P(=O)(O)O)[C@@H](O)[C@H]1O` (stereo partly drawn) [Example 67, 2-(((2R,3S,4R,5R)-3,4-dihydroxy-5-(6-(methylamino)-9H-purin-9-yl)tetrahydrofuran-2-yl)methoxy)-2-phosphonoacetic acid], for which the IC50 in test [1] is 100 to 1000 nM; in test [2], greater than 1000 nM.

Regarding `O=C(O)C(OC[C@H]1O[C@@H](n2cnc3c(N[C@@H]4CCOC4)nc(Cl)nc32)[C@H](O)[C@@H]1O)C(=O)O` [Example 68, 2-(((2R,3S,4R,5R)-5-(2-chloro-6-(((R)-tetrahydrofuran-3-yl)amino)-9H-purin-9-yl)-3,4-dihydroxytetrahydrofuran-2-yl)methoxy)malonic acid], the half-maximal inhibitory concentration (IC50) in test [1] is less than 100 nM; in test [2] it was 100 to 1000 nM.

As to `O=C(O)C(OC[C@H]1O[C@@H](n2cnc3c(N[C@@H]4CCOC4)nc(Cl)nc32)[C@H](O)[C@@H]1O)C(=O)O` [Example 69, (R)-2-(((2R,3S,4R,5R)-5-(2-chloro-6-(((R)-tetrahydrofuran-3-yl)amino)-9H-purin-9-yl)-3,4-dihydroxytetrahydrofuran-2-yl)methoxy)malonic Acid], the half-inhibitory concentration (IC50) in test [1] was 100 to 1000 nM; in test [2] it was greater than 1000 nM.

Take `CCOC(=O)[C@H](OC[C@H]1C[C@@H](n2cnc3cccc(C#N)c3c2=O)[C@H](O)[C@@H]1O)P(=O)(O)O` [Example 73, ((R)-1-(((1R,2R,3S,4R)-4-(5-cyano-4-oxoquinazolin-3(4H)-yl)-2,3-dihydroxycyclopentyl)methoxy)-2-ethoxy-2-oxoethyl)phosphonic Acid]: the IC50 in test [1] was less than 100 nM; in test [2], 100 to 1000 nM.

As to `O=C(O)C(OC[C@H]1O[C@@H](n2cnc3c(N[C@H]4CCOC4)nc(Cl)nc32)[C@H](O)[C@@H]1O)C(=O)O` [Example 83, 2-(((2R,3S,4R,5R)-5-(2-chloro-6-(((S)-tetrahydrofuran-3-yl)amino)-9H-purin-9-yl)-3,4-dihydroxytetrahydrofuran-2-yl)methoxy)malonic acid], the IC50 is 100 to 1000 nM in test [1] and greater than 1000 nM in test [2].

As to `Nc1nc(Cl)nc2c1ncn2[C@@H]1O[C@H](COC(Cc2c(F)cccc2F)(C(=O)O)C(=O)O)[C@@H](O)[C@H]1O` [Example 84, 2-(((2R,3S,4R,5R)-5-(6-amino-2-chloro-9H-purin-9-yl)-3,4-dihydroxytetrahydrofuran-2-yl)methoxy)-2-(2,6-difluorobenzyl)malonic acid], the IC50 in test [1] and in test [2] was less than 100 nM each time.

As to `N#Cc1ccccc1CC(OC[C@H]1O[C@@H](n2cnc3c(N)nc(Cl)nc32)[C@H](O)[C@@H]1O)(C(=O)O)C(=O)O` [Example 85], the IC50 in test [1] and in test [2] was less than 100 nM throughout.
